Reference: article PMC9271885 (eBioMedicine, 2022)
Several values for one entry are separate records, joined by “and”; a condition that tells them apart may be missing. Identical values can stand only once. Like-named read-outs stand apart in the source and are kept apart here.

Columns and labels:
SARS-CoV-2 [1] = format: cell-based; conditions: bronchial human airway epithelium
SARS-CoV-2 [2] = assay: Hamster model of SARS-CoV-2 infection, oral NTZ treatment (lung infectious titers, lung viral RNA yields, plasma viral loads); format: in vivo, Syrian hamsters; set-up: Lung Infectious titers / Plasmatic viral RNA yields / Lung Viral RNA yields: unit not given here; conditions: for Lung Infectious titers / Lung Viral RNA yields / Plasmatic viral RNA yields: inoculum 104 TCID50, Figure 3, individual animals
[3] = Clinical course of the disease in infected hamsters (normalized weight, clinical signs); format: in vivo, Syrian hamsters
Procedure: Three-week-old female Syrian hamsters were provided by Janvier Labs (SPF status). Animals were maintained in ISOcage P - Bioexclusion System (Techniplast) with unlimited access to water/food and 14h/10h light/dark cycle. A wooden gnawing block and extra bedding material was provided as cage enrichment. Animals were weighed and monitored daily for the duration of the study to detect the appearance of any clinical signs of illness/suffering. General anesthesia was obtained with isoflurane (Isoflurin®, Axience). Euthanasia, which was also realized under general anesthesia, was performed by cervical dislocation.
Groups of 6 hamsters were intranasally infected with 10^4 TCID50 of virus. a Experimental timeline. b, f, j Viral replication in lung based on infectious titers (measured using a TCID50 assay) expressed in TCID50/g of lung (n=6 animals/group). c, g, k Viral replication in lung based on viral RNA yields (measured using an RT-qPCR assay) expressed in viral genome copies/g of lung (n=6 animals/group). d, h, l Plasma viral loads (measured using an RT-qPCR assay) are expressed in viral genome copies/mL of plasma (the dotted line indicates the detection threshold of the assay) (n=6 animals/group). e, i, m Clinical course of the disease (n=6 animals/group). Normalized weight at day n was calculated as follows: % of initial weight of the animal at day n. Data represent mean ± SD (Details in Supplementary Data 2).

SARS-CoV-2 [4] = conditions: Vero E6 cells at 48 h post-infection; read-out: 50% effective concentration (EC50); cited from earlier work
Vero E6 cells = assay: in vitro; conditions: African green monkey, 2 days
Procedure: One day prior to infection, 96-well culture plates were seeded with 5×10^4 Vero E6 or Caco-2 cells in 100µL assay medium per well (containing 2.5% FCS). […] After 15min, a preset amount of virus diluted in 25µL of assay medium was added to the wells. This quantity of virus was calibrated so that the viral replication was still in the exponential growth phase for the readout, as previously described, [28], [29] which correspond here to 150 TCID50 per well. Four “cell control” wells were supplemented with 50µL of assay medium without any compounds or virus. On each culture plate, a positive control compound (Remdesivir, BLDpharm) was added in duplicate with eight 2-fold serial dilutions (0.16µM to 20µM). Plates were incubated for 2 days at 37°C prior to quantification of the viral genome by real-time RT-PCR as described below. For the determination of the 50% cytotoxic concentrations (CC50; compound concentration required to reduce by 50% cell viability), the same culture conditions were used, without addition of the virus, and cell viability was measured using CellTiter Blue® (Promega) following manufacturer's instructions. EC50, EC90 and CC50 were determined using logarithmic interpolation as previously described.[28] The selectivity index of the compounds was calculated as the ratio of the CC50 over the EC50.

[5] = in vivo, cited from earlier work
[6] = cited from earlier work
[7] = NTZ 500mg/kg/day BID oral for 3 days, 3 dpi
[8] = NTZ 500mg/kg/day BID oral for 4 days, 5 dpi
[9] = NTZ 750mg/kg/day TID oral for 3 days, 3 dpi
[10] = Nitazoxanide per os 500mg/kg/day BID, sacrifice day 3
[11] = Nitazoxanide per os 500mg/kg/day BID, sacrifice day 5
[12] = Nitazoxanide per os 750mg/kg/day BID, sacrifice day 3
[13] = Nitazoxanide IN 2.8mg/kg/day TID, inoculum 104 TCID50, sacrifice day 3, Figure 5, individual animals
[14] = Nitazoxanide IN 2.8mg/kg/day TID, inoculum 104 TCID50, sacrifice day 3, Figure SF 2, individual animals
[15] = Nitazoxanide per os 500mg/kg/day BID, inoculum 104 TCID50, sacrifice day 3, Figure 3, individual animals
[16] = Nitazoxanide per os 500mg/kg/day BID, inoculum 104 TCID50, sacrifice day 5, Figure 3, individual animals
[17] = Nitazoxanide per os 750mg/kg/day BID, inoculum 104 TCID50, sacrifice day 3, Figure 3, individual animals

In the case of `CC(=O)Oc1ccccc1C(=O)Nc1ncc([N+](=O)[O-])s1` [NTZ, Nitazoxanide], the “effective NTZ concentrations ex vivo” value (SARS-CoV-2 [1]) is reported as 5 µM, the “effective NTZ concentrations ex vivo” value (SARS-CoV-2 [1]; conversion of 5µM) is reported as 1.54 µg/mL and the “infectious titers in clarified lung homogenates vs untreated animals” value (shortened to “infectious titers … vs untreated animals”) (SARS-CoV-2 [2]; [7]) is reported as “no significant differences”. The “viral RNA yields in clarified lung homogenates vs untreated animals” value (SARS-CoV-2 [2]; [7]) was “no significant differences”, the “viral RNA yields in plasma vs untreated animals” value (SARS-CoV-2 [2]; [7]) was “No significant difference” and the “infectious titers … vs untreated animals” value (SARS-CoV-2 [2]; [8]) was “no significant reduction”. For the same compound, the “viral RNA yields in clarified lung homogenates vs untreated animals” value (SARS-CoV-2 [2]; [8]) was “no significant reduction”, the “viral RNA yields in plasma vs untreated animals” value (SARS-CoV-2 [2]; [8]) was “no significant reduction” and the “infectious titers … vs untreated animals” value (SARS-CoV-2 [2]; [9]) was “no significant differences”. For the same compound, the “viral RNA yields in clarified lung homogenates vs untreated animals” value (SARS-CoV-2 [2]; [9]) was “no significant differences”, the “viral RNA yields in plasma vs untreated animals” value (SARS-CoV-2 [2]; [9]) was “No significant difference” and the “Lung Infectious titers” value (SARS-CoV-2 [2]; [10]) was 8.038 and 8.250 and 7.442 and 7.772 and 7.773 and 7.077. For the same compound, the “Lung Viral RNA yields” value (SARS-CoV-2 [2]; [10]) was 8.641, the “Plasmatic viral RNA yields” value (SARS-CoV-2 [2]; [10]) was 5.553 and 4.360 and 4.045 and 4.724 and 5.043 and 5.205 and the “Lung Viral RNA yields” value (SARS-CoV-2 [2]; [11]) was 7.115 and 6.597 and 6.910. For the same compound, the “Plasmatic viral RNA yields” value (SARS-CoV-2 [2]; [11]) was 3.987 and 3.600 and 3.442 and 4.487 and 3.519, the “Lung Infectious titers” value (SARS-CoV-2 [2]; Nitazoxanide per os 500mg/kg/day BID, sacrifice day 5, § : considered at 60 TCID50/mL (detection threshold)) was ≤ 2.486 § and 4.354 and 4.491 and 5.007 and 3.086 and the “Lung Infectious titers” value (SARS-CoV-2 [2]; [12]) was 7.345 and 6.869 and 7.090 and 6.311 and 7.103 and 7.069. The “Lung Viral RNA yields” value (SARS-CoV-2 [2]; [12]) was 8.692, the “Plasmatic viral RNA yields” value (SARS-CoV-2 [2]; [12]) was 3.193 and 2.818 and 5.191 and 4.129 and 4.008 and 4.113 and the “mean normalized weight vs untreated animals” value ([3]; NTZ 2.8mg/kg/day TID intranasal, 1 to 3 dpi, first experiment) was “significantly lower than that of untreated animals”. For the same compound, the “mean normalized weight vs untreated animals” value ([3]; NTZ 2.8mg/kg/day TID intranasal, 1 to 3 dpi, repeated experiment) was “significantly lower than that of untreated animals”, the “mean normalized weight vs untreated animals” value ([3]; NTZ 500mg/kg/day BID oral for 3 days, at 3 dpi) was “significantly lower than that of untreated animals” and the “clinical signs of illness/suffering compared to untreated animals” value ([3]; NTZ 500mg/kg/day BID oral for 4 days, followed to 5 dpi) was “did not show any clinical signs of illness/suffering”. The “mean normalized weight vs untreated animals” value ([3]; NTZ 750mg/kg/day TID oral for 3 days, at 2 dpi) was “significantly lower than that of untreated animals”, the “Normalized weights Day 0” value [3, 13] was 100 and the “Normalized weights Day 1” value [3, 13] was 90.2 and 91.4 and 94.7 and 92.3 and 86.3 and 91.5. For the same compound, the “Normalized weights Day 2” value [3, 13] was 81.4 and 83.1 and 86.9 and 88.1 and 80.0 and 82.4, the “Normalized weights Day 3” value [3, 13] was 70.4 and the “Normalized weights Day 0” value [3, 14] was 100. For the same compound, the “Normalized weights Day 1” value [3, 14] was 92.6 and 97.1 and 95.9 and 101.1 and 97.4 and 94.0, the “Normalized weights Day 2” value [3, 14] was 84.7 and 91.2 and 89.0 and 92.2 and 87.0 and 85.8 and the “Normalized weights Day 0” value [3, 15] was 100. For the same compound, the “Normalized weights Day 1” value [3, 15] was 103.3 and 103.7 and 101.9 and 97.1 and 103.5 and 104.5, the “Normalized weights Day 2” value [3, 15] was 100.2 and 95.2 and 98.6 and 92.0 and 97.9 and 99.6 and the “Normalized weights Day 3” value [3, 15] was 97.9 and 94.1 and 93.4 and 93.2. The “Normalized weights Day 0” value [3, 16] was 100, the “Normalized weights Day 1” value [3, 16] was 103.8 and 103.9 and 104.9 and 104.4 and 104.6 and 102.8 and the “Normalized weights Day 2” value [3, 16] was 96.9 and 95.0 and 102.9 and 95.3 and 100.2. For the same compound, the “Normalized weights Day 3” value [3, 16] was 96.2 and 96.1, the “Normalized weights Day 4” value [3, 16] was 83.8 and the “Normalized weights Day 5” value [3, 16] was 98.6 and 90.9 and 91.2 and 79.5 and 92.9. For the same compound, the “Normalized weights Day 0” value [3, 17] was 100, the “Normalized weights Day 1” value [3, 17] was 102.2 and 103.1 and 105.8 and 99.4 and 106.0 and 101.2 and the “Normalized weights Day 2” value [3, 17] was 95.2 and 96.5 and 95.6 and 90.1 and 90.2. The “Normalized weights Day 3” value [3, 17] was 92.7, the “mean normalized weight vs untreated animals” value ([3]; histopathology experiment, NTZ 500mg/kg/day BID oral, at 3 dpi) was “significantly lower than that of untreated animals” and the “Normalized weights Day 0” value ([3]; infected hamsters, nitazoxanide 500mg/kg/day per os BID, Day 0, individual animals) was 100. For the same compound, the “Normalized weights Day 1” value ([3]; infected hamsters, nitazoxanide 500mg/kg/day per os BID, Day 1, individual animals) was 100.5 and 102.7 and 103.7 and 103.5, the “Normalized weights Day 2” value ([3]; infected hamsters, nitazoxanide 500mg/kg/day per os BID, Day 2, individual animals) was 94.1 and 99.3 and 98.2 and the “Normalized weights Day 3” value ([3]; infected hamsters, nitazoxanide 500mg/kg/day per os BID, Day 3, individual animals) was 92.9 and 96.2. The “Normalized weights Day 4” value ([3]; infected hamsters, nitazoxanide 500mg/kg/day per os BID, Day 4, individual animals) was 86.9, the “Normalized weights Day 5” value ([3]; infected hamsters, nitazoxanide 500mg/kg/day per os BID, Day 5, individual animals) was 90.1 and 88.3 and 85.4 and 93.9 and the EC50 (SARS-CoV-2 [4]) was 2.12 µM.
For `O=C(Nc1ncc([N+](=O)[O-])s1)c1ccccc1O` [TIZ, tizoxanide], the CC50 (Vero E6 cells) is given as > 100 µM, the Tmax ([5]; human) is given as “approximately 2 hours” and the apparent clearance [5] is given as 19.34 L/h. For the same compound, the volume of distribution [5] was 38.68 L and the “bound to plasma proteins” value [6] was 99%.
